# Measured values taken from patent US12577250B2, “1,2,4-triazolone derivative as DHODH inhibitor, and preparation method therefor and use thereof” (WIGEN BIOMEDICINE TECHNOLOGY (SHANGHAI) CO., LTD., priority 2021, dated 2026).
# Where two headings read alike, the source gives them in different places.
# Assays:
# MV-4-11 cells = test: Anti-proliferative activity on MV-4-11 cells (CellTiter-Lumi, 72 h); assay type: cell-based; details: Homo sapiens, MV4-11, 72 h, read-out: Cell anti-proliferative activity IC50 MV-4-11
# Procedure: MV-4-11 cells were seeded into a 384-well plate (Fisher 142762) at 3000 cells per well. The next day, serially diluted compounds were added, and 72 h after the addition, CellTiter-Lumi (Beyotime C0068XL) was added to measure the ATP content in the cells. The growth of the cells was evaluated, and IC50 of the compounds against cell growth was calculated.
# DHODH = DHODH (Homo sapiens, UniProt Q02127); test: Assay against enzyme activity of DHODH (DCIP absorption at 600 nm); assay type: biochemical
# Procedure: The enzyme activity of DHODH was assayed through a cascade reaction to determine its ability to catalyze the oxidation of a natural substrate DHO (dihydroorotic acid) to orotic acid while reducing coenzyme Q. The enzyme activity of DHODH was indirectly detected by assaying the ability of the coenzyme Q to reduce a chromogenic substrate DCIP. After the compound and an enzyme reaction mixture were incubated for 5 min, a reaction substrate DHO was added to start the reaction, and the enzyme activity was assayed by assaying the absorption at 600 nm to detect the DCIP exhaustion in a timed manner.
# Chain of DHODH (Q02127 whole entry): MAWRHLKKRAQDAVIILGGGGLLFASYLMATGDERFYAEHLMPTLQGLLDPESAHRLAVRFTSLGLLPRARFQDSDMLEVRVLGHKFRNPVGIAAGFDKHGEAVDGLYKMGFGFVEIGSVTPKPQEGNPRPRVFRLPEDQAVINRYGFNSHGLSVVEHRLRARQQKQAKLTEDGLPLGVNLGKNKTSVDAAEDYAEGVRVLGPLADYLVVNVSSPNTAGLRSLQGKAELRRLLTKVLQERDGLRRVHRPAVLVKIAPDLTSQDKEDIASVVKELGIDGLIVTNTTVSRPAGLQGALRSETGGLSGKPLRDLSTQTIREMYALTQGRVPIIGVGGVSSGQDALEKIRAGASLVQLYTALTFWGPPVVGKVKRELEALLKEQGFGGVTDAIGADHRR
Structure (SMILES),IC50 (MV-4-11 cells) [nM],IC50 (DHODH) [nM],IC50 (MV-4-11 cells; class symbols) [nM]
C[C@H](Oc1cc(-n2nc3n(c2=O)CCC2(CC2)C3)c(F)cc1C(=O)Nc1ccccc1C(F)(F)F)C(F)(F)F [Compound 3],5.45,< 50,
C[C@H](Oc1cc(-n2nc3n(c2=O)CCC2(CC2)C3)c(F)cc1C(=O)Nc1ccccc1C(F)F)C(F)(F)F [Compound 4],,< 50,≤ 50
Cc1ccccc1NC(=O)c1cc(F)c(-n2nc3n(c2=O)CCC2(CC2)C3)cc1O[C@@H](C)C(F)(F)F [Compound 5],,< 50,≤ 50
Cc1cccc(NC(=O)c2cc(F)c(-n3nc4n(c3=O)CCC3(CC3)C4)cc2O[C@@H](C)C(F)(F)F)c1 [Compound 7],,< 50,≤ 50
C[C@H](Oc1cc(-n2nc3n(c2=O)CCC2(CC2)C3)c(F)cc1C(=O)Nc1cccc(F)c1)C(F)(F)F [Compound 9],,< 50,≤ 50
C[C@H](Oc1cc(-n2nc3n(c2=O)CCC2(CC2)C3)c(F)cc1C(=O)Nc1c(Cl)cccc1Cl)C(F)(F)F [Compound 13],1.56,< 50,
COc1cccc(C)c1NC(=O)c1cc(F)c(-n2nc3n(c2=O)CCC2(CC2)C3)cc1O[C@@H](C)C(F)(F)F [Compound 15],3.42,,
Cc1cccc(N)c1NC(=O)c1cc(F)c(-n2nc3n(c2=O)CCC2(CC2)C3)cc1O[C@@H](C)C(F)(F)F [Compound 17],,,≤ 50
COc1cccc(C)c1NC(=O)c1cc(F)c(-n2nc3n(c2=O)CCC2(CC2)C3)cc1O[C@@H](C)C(F)(F)F [Compound 18],,,≤ 50
Cc1ccc(F)c(NC(=O)c2cc(F)c(-n3nc4n(c3=O)CCC3(CC3)C4)cc2O[C@@H](C)C(F)(F)F)c1 [Compound 19],,< 50,≤ 50
C[C@H](Oc1cc(-n2nc3n(c2=O)CCC2(CC2)C3)c(F)cc1C(=O)Nc1cc(Cl)ccc1F)C(F)(F)F [Compound 20],,< 50,≤ 50
C[C@H](Oc1cc(-n2nc3n(c2=O)CCC2(CC2)C3)c(F)cc1C(=O)Nc1ccc(F)cc1Cl)C(F)(F)F [Compound 21],,< 50,≤ 50
Cc1cc(N)ccc1NC(=O)c1cc(F)c(-n2nc3n(c2=O)CCC2(CC2)C3)cc1O[C@@H](C)C(F)(F)F [Compound 25],,< 50,≤ 50
C[C@H](Oc1cc(-n2nc3n(c2=O)CCC2(CC2)C3)c(F)cc1C(=O)Nc1c(F)cc(F)cc1Cl)C(F)(F)F [Compound 27],,< 50,≤ 50
Cc1cc(F)cc(Cl)c1NC(=O)c1cc(F)c(-n2nc3n(c2=O)CCC2(CC2)C3)cc1O[C@@H](C)C(F)(F)F [Compound 29],,< 50,≤ 50
C[C@H](Oc1cc(-n2nc3n(c2=O)CCC2(CC2)C3)c(F)cc1C(=O)Nc1c(Cl)ccc(F)c1F)C(F)(F)F [Compound 31],,< 50,≤ 50
Cc1ccc(Cl)c(NC(=O)c2cc(F)c(-n3nc4n(c3=O)CCC3(CC3)C4)cc2O[C@@H](C)C(F)(F)F)c1C [Compound 32],,< 50,≤ 50
Cc1cnccc1NC(=O)c1cc(F)c(-n2nc3n(c2=O)CCC2(CC2)C3)cc1O[C@@H](C)C(F)(F)F [Compound 34],10.2,< 50,
COc1nccc(Cl)c1NC(=O)c1cc(F)c(-n2nc3n(c2=O)CCC2(CC2)C3)cc1O[C@@H](C)C(F)(F)F [Compound 37],10.5,< 50,
Cc1n[nH]c(C)c1NC(=O)c1cc(F)c(-n2nc3n(c2=O)CCC2(CC2)C3)cc1O[C@@H](C)C(F)(F)F [Compound 38],21.4,< 50,
Cc1n[nH]c(Cl)c1NC(=O)c1cc(F)c(-n2nc3n(c2=O)CCC2(CC2)C3)cc1O[C@@H](C)C(F)(F)F [Compound 39],65.8,< 50,
CCC[C@H](C)Oc1cc(-n2nc3n(c2=O)CCC2(CC2)C3)c(F)cc1C(=O)Nc1c(F)cccc1Cl [Compound 42],,< 50,≤ 50

# Results, then the molecule that gave them:
IC50 (MV-4-11 cells) [nM],IC50 (DHODH) [nM],IC50 (MV-4-11 cells; class symbols) [nM],Structure (SMILES)
4.56,,,C[C@H](Oc1cc(-n2nc3n(c2=O)CCC2(CC2)C3)c(F)cc1C(=O)Nc1ccccc1F)C(F)(F)F [Compound 2]
,< 50,≤ 50,CCc1ccccc1NC(=O)c1cc(F)c(-n2nc3n(c2=O)CCC2(CC2)C3)cc1O[C@@H](C)C(F)(F)F [Compound 6]
,< 50,≤ 50,C[C@H](Oc1cc(-n2nc3n(c2=O)CCC2(CC2)C3)c(F)cc1C(=O)Nc1cccc(Cl)c1)C(F)(F)F [Compound 8]
2.24,,,C[C@H](Oc1cc(-n2nc3n(c2=O)CCC2(CC2)C3)c(F)cc1C(=O)Nc1c(F)cccc1F)C(F)(F)F [Compound 10]
2.13,,,Cc1cccc(F)c1NC(=O)c1cc(F)c(-n2nc3n(c2=O)CCC2(CC2)C3)cc1O[C@@H](C)C(F)(F)F [Compound 11]
1.45,< 50,,Cc1cccc(Cl)c1NC(=O)c1cc(F)c(-n2nc3n(c2=O)CCC2(CC2)C3)cc1O[C@@H](C)C(F)(F)F [Compound 12]
,< 50,≤ 50,C[C@H](Oc1cc(-n2nc3n(c2=O)CCC2(CC2)C3)c(F)cc1C(=O)Nc1c(F)cccc1C(F)(F)F)C(F)(F)F [Compound 14]
,< 50,≤ 50,Cc1cccc(C(F)(F)F)c1NC(=O)c1cc(F)c(-n2nc3n(c2=O)CCC2(CC2)C3)cc1O[C@@H](C)C(F)(F)F [Compound 16]
,< 50,≤ 50,Cc1cc(F)ccc1NC(=O)c1cc(F)c(-n2nc3n(c2=O)CCC2(CC2)C3)cc1O[C@@H](C)C(F)(F)F [Compound 22]
,< 50,≤ 50,Cc1c(F)cccc1NC(=O)c1cc(F)c(-n2nc3n(c2=O)CCC2(CC2)C3)cc1O[C@@H](C)C(F)(F)F [Compound 23]
,< 50,≤ 50,Cc1c(Cl)cccc1NC(=O)c1cc(F)c(-n2nc3n(c2=O)CCC2(CC2)C3)cc1O[C@@H](C)C(F)(F)F [Compound 24]
,< 50,≤ 50,C[C@H](Oc1cc(-n2nc3n(c2=O)CCC2(CC2)C3)c(F)cc1C(=O)Nc1ccc(N)cc1C(F)(F)F)C(F)(F)F [Compound 26]
,< 50,≤ 50,C[C@H](Oc1cc(-n2nc3n(c2=O)CCC2(CC2)C3)c(F)cc1C(=O)Nc1c(Cl)cc(F)cc1Cl)C(F)(F)F [Compound 28]
,< 50,≤ 50,COc1cc(F)c(NC(=O)c2cc(F)c(-n3nc4n(c3=O)CCC3(CC3)C4)cc2O[C@@H](C)C(F)(F)F)c(F)c1 [Compound 30]
,< 50,50 to 500,Cc1cccnc1NC(=O)c1cc(F)c(-n2nc3n(c2=O)CCC2(CC2)C3)cc1O[C@@H](C)C(F)(F)F [Compound 33]
6.79,< 50,,COc1ccnc(C)c1NC(=O)c1cc(F)c(-n2nc3n(c2=O)CCC2(CC2)C3)cc1O[C@@H](C)C(F)(F)F [Compound 35]
12.4,< 50,,Cc1ccnc(Cl)c1NC(=O)c1cc(F)c(-n2nc3n(c2=O)CCC2(CC2)C3)cc1O[C@@H](C)C(F)(F)F [Compound 36]
,< 50,≤ 50,CC(C)Oc1cc(-n2nc3n(c2=O)CCC2(CC2)C3)c(F)cc1C(=O)Nc1c(F)cccc1Cl [Compound 40]
,< 50,≤ 50,CC[C@H](C)Oc1cc(-n2nc3n(c2=O)CCC2(CC2)C3)c(F)cc1C(=O)Nc1c(F)cccc1Cl [Compound 41]
,< 50,≤ 50,CC(C)[C@H](C)Oc1cc(-n2nc3n(c2=O)CCC2(CC2)C3)c(F)cc1C(=O)Nc1c(F)cccc1Cl [Compound 43]
